{
  "source": "patent US12331051B2",
  "about": "(priority 2021, dated 2025)",
  "key": {"[1]": {"molecular_target": "T1, Serotonin 2C receptor (5-HT2CR) (Homo sapiens, UniProt P28335)", "T1 construct": "expressed in transfected cells; host or cells: HEK-293", "T1 sequence (P28335 33-458)": "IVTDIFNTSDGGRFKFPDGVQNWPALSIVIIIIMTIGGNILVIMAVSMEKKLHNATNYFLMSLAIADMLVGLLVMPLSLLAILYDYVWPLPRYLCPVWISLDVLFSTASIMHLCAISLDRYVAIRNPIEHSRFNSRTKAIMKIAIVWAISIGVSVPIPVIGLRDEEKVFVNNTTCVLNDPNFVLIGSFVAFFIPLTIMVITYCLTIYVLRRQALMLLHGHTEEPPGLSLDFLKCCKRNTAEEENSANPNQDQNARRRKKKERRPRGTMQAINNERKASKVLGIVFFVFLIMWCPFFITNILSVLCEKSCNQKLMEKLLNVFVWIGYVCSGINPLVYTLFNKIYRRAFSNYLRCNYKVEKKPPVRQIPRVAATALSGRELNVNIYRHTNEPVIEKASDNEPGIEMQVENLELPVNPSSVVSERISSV", "assay": "Functional assay in HEK-293 cells (IP1)", "format": "cell-based", "procedure": "Neuro-receptor binding and functional effects of the “E559 polymorph” was examined by analyzing binding affinity [Ki (nM)], functional agonist activity [EC50 (nM)], and functional antagonist activity [IC50 (nM)] against a panel of key receptors in neurophysiological disorders. Binding and functional assays were performed at “E559 polymorph” concentrations of 0.0003, 0.003, 0.01, 0.03, 0.1, 0.3, 1, and 10 μM. In binding assays, cell membrane homogenates, expressing each receptor target, were incubated with the corresponding radio-ligand in absence or presence of several concentration of the “E559 polymorph” compound. The measurement of binding affinity of the “E559 polymorph” is represented in TABLE XIII by Ki (nM) which was calculated as percent inhibition of the binding of a radioactively labeled reference ligand at each receptor. […] Following incubation, the cells were lysed and the appropriate fluorescent probe (Ca2+ flux, cAMP, or IP1) were added for 60 minutes to measure the fluorescence transfer at the appropriate wavelength using a microplate reader. The cellular agonist effect (EC50) was calculated as a percent of control response to a known reference agonist and the cellular antagonist effect (IC50) was calculated as a percent inhibition of control reference agonist response for each receptor."}, "C57BL/6J mice": {"tested_on": "C57BL/6J mice", "assay": "Chronic variable stress (CVS) mouse model, open field test and splash test", "format": "in vivo", "details": "for CVS induced decrease of time in center of open field: female mice", "procedure": "The “polymorph HT compound” (from Example 1) was tested for its anti-depression/anxiety activity in the chronic variable stress (CVS) mouse model as assessed by a self-grooming splash test and an open field test (OFT) [Strekalova et al., Psychopharmacology (Berl). 2022, 239(3):663-693; Willner, P. Neurobiol Stress, 2017, 6:78-93]. In brief, C57BL/6J mice were subjected to a CVS protocol, consisting of 2 stressors per day for 35 days. Naive mice (not exposed to CVS) are used as a control for CVS-induced depression activity. Following the 35 days CVS, mice were treated with the “E559 polymorph” (FIG. 23) via intraperitoneal injection (IP) as follows: single dose after the last day of CVS (3 mg/kg) or 4 doses (1 mg/kg) applied every 48 hours starting on day 28 of CVS. Saline was used as the vehicle control. The splash test and OFT were performed as previously described in (Aguilar-Valles et al., Nature, 2021, 590, p315-319). […] FIG. 23B represents distance travelled in the open field by female mice treated with E559 polymorph. FIG. 23C represents time spend in the center of the open field of mice in FIG. 23B. […] Horizontal lines represent the mean±standard error of the mean (S.E.M.) and asterisks indicate statistical significances."}, "[2]": {"tested_on": "prefrontal cortex region of mice", "assay": "Spine density analysis in the prefrontal cortex after FST", "format": "in vivo, mouse", "details": "both sexes, 1 mg/kg, ~26 hour after treatment", "procedure": "Following testing in the FST, brains were collected for spine density analysis in the prefrontal cortex region (˜26 hour after treatment; FIG. 25H)."}, "[3]": {"molecular_target": "T2, Alpha 1A adrenergic receptor (Homo sapiens, UniProt P35348)", "T2 construct": "expressed in transfected cells; host or cells: HEK-293", "T2 sequence (P35348 1-466)": "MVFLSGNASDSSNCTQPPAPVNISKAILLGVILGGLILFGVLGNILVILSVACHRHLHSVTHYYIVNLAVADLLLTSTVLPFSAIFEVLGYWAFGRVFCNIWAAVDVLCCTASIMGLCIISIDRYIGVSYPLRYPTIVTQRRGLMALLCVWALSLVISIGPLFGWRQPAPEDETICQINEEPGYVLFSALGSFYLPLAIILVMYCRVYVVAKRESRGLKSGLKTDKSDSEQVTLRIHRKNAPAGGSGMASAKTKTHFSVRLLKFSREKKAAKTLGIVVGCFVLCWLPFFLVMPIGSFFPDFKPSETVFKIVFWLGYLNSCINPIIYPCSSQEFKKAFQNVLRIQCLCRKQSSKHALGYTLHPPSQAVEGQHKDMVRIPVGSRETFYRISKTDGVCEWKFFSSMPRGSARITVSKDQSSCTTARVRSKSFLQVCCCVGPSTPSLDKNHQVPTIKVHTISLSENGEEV", "assay": "Functional assay in HEK-293 cells (Ca2+ flux)", "format": "cell-based", "procedure": "(§1) Neuro-receptor binding and functional effects of the “E559 polymorph” was examined by analyzing binding affinity [Ki (nM)], functional agonist activity [EC50 (nM)], and functional antagonist activity [IC50 (nM)] against a panel of key receptors in neurophysiological disorders. Binding and functional assays were performed at “E559 polymorph” concentrations of 0.0003, 0.003, 0.01, 0.03, 0.1, 0.3, 1, and 10 μM. In binding assays, cell membrane homogenates, expressing each receptor target, were incubated with the corresponding radio-ligand in absence or presence of several concentration of the “E559 polymorph” compound. The measurement of binding affinity of the “E559 polymorph” is represented in TABLE XIII by Ki (nM) which was calculated as percent inhibition of the binding of a radioactively labeled reference ligand at each receptor. In functional assays the HEK-293 cells expressing each receptor target were suspended in buffer and distribute in microplates and incubated for 30 minutes at room temperature or 37° C. in the presence of buffer alone (basal control), the reference agonist or antagonist, or the “E559 polymorph. Following incubation, the cells were lysed and the appropriate fluorescent probe (Ca2+ flux, cAMP, or IP1) were added for 60 minutes to measure the fluorescence transfer at the appropriate wavelength using a microplate reader. The cellular agonist effect (EC50) was calculated as a percent of control response to a known reference agonist and the cellular antagonist effect (IC50) was calculated as a percent inhibition of control reference agonist response for each receptor."}, "[4]": {"molecular_target": "T3, Serotonin 1A receptor (5-HT1AR) (Homo sapiens, UniProt P08908)", "T3 construct": "expressed in transfected cells; host or cells: HEK-293", "T3 sequence (P08908 1-422)": "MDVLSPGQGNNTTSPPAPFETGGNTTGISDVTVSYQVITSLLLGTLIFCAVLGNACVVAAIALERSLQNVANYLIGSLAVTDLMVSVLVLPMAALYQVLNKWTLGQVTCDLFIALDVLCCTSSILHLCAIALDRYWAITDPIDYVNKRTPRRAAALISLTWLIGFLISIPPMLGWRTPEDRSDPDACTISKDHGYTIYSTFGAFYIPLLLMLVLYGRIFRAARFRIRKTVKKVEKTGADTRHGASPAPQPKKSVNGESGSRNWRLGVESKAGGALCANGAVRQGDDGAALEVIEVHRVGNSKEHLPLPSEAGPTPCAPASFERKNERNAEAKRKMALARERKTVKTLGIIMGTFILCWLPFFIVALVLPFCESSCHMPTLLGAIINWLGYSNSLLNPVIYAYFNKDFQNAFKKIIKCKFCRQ", "assay": "Functional assay in HEK-293 cells (Ca2+ flux)", "format": "cell-based", "procedure": "as §1"}, "[5]": {"tested_on": "5-HT1 receptor subtypes: 5-HT1A, 1B, 1D, 1E, and 1F", "format": "cell-based, human", "details": "FIG. 15, FIG. 16A/B; listed as E559 polymorph"}},
  "note": "“Also recorded” adds a separate entry of the source.",
  "data": [
    {"smiles": "CCN(CC)C(=O)[C@@H]1C=C2c3cccc4[nH]c(Br)c(c34)C[C@H]2N(C)C1", "note": "[E559, (5R, 8R)-2-Bromo-9,10-didehydro-N,N-diethyl-6-methylergoline-8-carboxamide hemi-D-tartrate]", "values": [
      {"measurement": "EC50", "setting": "[1]", "value": "> 10", "unit": "µM"},
      {"measurement": "IC50", "setting": "[1]", "value": 1.1, "unit": "µM"},
      {"measurement": "CVS effect on time in center in OFT, 28 days after the last treatment", "setting": "C57BL/6J mice; 4×1 mg/kg", "value": "remained reversed"},
      {"measurement": "locomotion (total distance travelled) in open field, CVS mice", "setting": "C57BL/6J mice; 4×1 mg/kg", "value": "without affecting locomotion"},
      {"measurement": "time spent self-grooming in the splash test", "setting": "C57BL/6J mice; female CVS mice", "value": "partially reversed this CVS-induced effect"},
      {"measurement": "CVS induced decrease of time in center of open field", "setting": "C57BL/6J mice; IP 4 doses of 1 mg/kg every 48 hours", "value": "fully reversed to the levels seen in the control"},
      {"measurement": "CVS induced decrease of time in center of open field", "setting": "C57BL/6J mice; IP single dose of 3 mg/kg", "value": "partially restored the effect of CVS"},
      {"measurement": "average spine density in prefrontal cortex", "setting": "[2]", "value": "significant increase in the average spine density"},
      {"measurement": "EC50", "setting": "[3]", "value": 0.051, "unit": "µM"},
      {"measurement": "IC50", "setting": "[3]", "value": "> 10", "unit": "µM"},
      {"measurement": "EC50", "setting": "[4]", "value": 3, "unit": "µM"},
      {"measurement": "IC50", "setting": "[4]", "value": "> 10", "unit": "µM"},
      {"measurement": "functional activity at 5-HT1 receptor subtypes", "setting": "[5]", "value": "moderate to potent agonist across all the 5-HT1 receptor subtypes; also recorded: exhibits the greatest potency (agonism) at 5-HT1F and 5-HT1D receptors"}
    ]}
  ]
}
